Results reported in PubChem BioAssay (NCI).
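Dose response: 5 concentrations. Exposure: 48 h. Format: 96-well plates. Endpoint: linear interpolation; highest concentration if not reached. TGI is the concentration that stops growth completely.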

Experiments:
Assay in all cases: DTP human tumour cell line panel, 48 h
COLO 205 colon = tested on: COLO 205 colon
NCI-H226 lung = tested on: NCI-H226 lung
CCRF-CEM leukemia = tested on: CCRF-CEM leukemia
786-0 renal = tested on: 786-0 renal
MDA-N = tested on: MDA-N
NCI-H460 lung = tested on: NCI-H460 lung
SK-MEL-2 melanoma = tested on: SK-MEL-2 melanoma
UO-31 renal = tested on: UO-31 renal
U251 CNS = tested on: U251 CNS
ACHN renal = tested on: ACHN renal
SK-MEL-5 melanoma = tested on: SK-MEL-5 melanoma
OVCAR-5 ovarian = tested on: OVCAR-5 ovarian
SF-539 CNS = tested on: SF-539 CNS
SF-268 CNS = tested on: SF-268 CNS
SNB-19 CNS = tested on: SNB-19 CNS
OVCAR-3 ovarian = tested on: OVCAR-3 ovarian
KM12 colon = tested on: KM12 colon
SR leukemia = tested on: SR leukemia
EKVX NSCLC = tested on: EKVX NSCLC
SK-OV-3 ovarian = tested on: SK-OV-3 ovarian
DU-145 prostate = tested on: DU-145 prostate
SNB-75 CNS = tested on: SNB-75 CNS
RXF 393 renal = tested on: RXF 393 renal
RPMI-8226 leukemia = tested on: RPMI-8226 leukemia
HOP-92 NSCLC = tested on: HOP-92 NSCLC
BT-549 breast = tested on: BT-549 breast
NCI-H23 lung = tested on: NCI-H23 lung
MOLT-4 leukemia = tested on: MOLT-4 leukemia
UACC-62 melanoma = tested on: UACC-62 melanoma
M14 melanoma = tested on: M14 melanoma
HT29 colon = tested on: HT29 colon
TK-10 renal = tested on: TK-10 renal
SF-295 CNS = tested on: SF-295 CNS
UACC-257 melanoma = tested on: UACC-257 melanoma
HCT-15 colon = tested on: HCT-15 colon
HOP-62 NSCLC = tested on: HOP-62 NSCLC
OVCAR-8 ovarian = tested on: OVCAR-8 ovarian
SN12C renal = tested on: SN12C renal
CAKI-1 renal = tested on: CAKI-1 renal
NCI/ADR-RES ovarian = tested on: NCI/ADR-RES ovarian
HL-60(TB) leukemia = tested on: HL-60(TB) leukemia
PC-3 prostate = tested on: PC-3 prostate
T-47D breast = tested on: T-47D breast
MDA-MB-231 breast = tested on: MDA-MB-231 breast
IGROV1 ovarian = tested on: IGROV1 ovarian
OVCAR-4 ovarian = tested on: OVCAR-4 ovarian
MCF7 breast = tested on: MCF7 breast
NCI-H522 lung = tested on: NCI-H522 lung
SK-MEL-28 melanoma = tested on: SK-MEL-28 melanoma
K-562 leukemia = tested on: K-562 leukemia
SW-620 colon = tested on: SW-620 colon
A549 NSCLC = tested on: A549 NSCLC
HS 578T breast = tested on: HS 578T breast
HCT-116 colon = tested on: HCT-116 colon
HCC-2998 colon = tested on: HCC-2998 colon
LOX IMVI melanoma = tested on: LOX IMVI melanoma
A498 renal = tested on: A498 renal
MDA-MB-435 = tested on: MDA-MB-435

## COc1cc2c(/C=C3/C(=O)Nc4ccccc43)c(Cl)[nH]c2cc1C
COLO 205 colon
  TGI: 1.73 µM
NCI-H226 lung
  TGI: > 100 µM
CCRF-CEM leukemia
  TGI: > 67.8 µM
786-0 renal
  TGI: 13.9 µM
MDA-N
  TGI: 0.0396 µM
NCI-H460 lung
  TGI: 15.7 µM
SK-MEL-2 melanoma
  TGI: 25.4 µM
UO-31 renal
  TGI: 20.7 µM
U251 CNS
  TGI: 10.9 µM
ACHN renal
  TGI: 17.4 µM
SK-MEL-5 melanoma
  TGI: 1.42 µM
OVCAR-5 ovarian
  TGI: 23.7 µM
SF-539 CNS
  TGI: 0.225 µM
SF-268 CNS
  TGI: 18.5 µM
SNB-19 CNS
  TGI: 17.5 µM
OVCAR-3 ovarian
  TGI: > 39.9 µM
KM12 colon
  TGI: 0.232 µM
SR leukemia
  TGI: 10.1 µM
EKVX NSCLC
  TGI: 25.1 µM
SK-OV-3 ovarian
  TGI: 0.141 µM
DU-145 prostate
  TGI: 1.08 µM
SNB-75 CNS
  TGI: 17.9 µM
RXF 393 renal
  TGI: 24 µM
RPMI-8226 leukemia
  TGI: 24.9 µM
HOP-92 NSCLC
  TGI: 26.6 µM
BT-549 breast
  TGI: 17.1 µM
NCI-H23 lung
  TGI: 0.879 µM
MOLT-4 leukemia
  TGI: 14.2 µM
UACC-62 melanoma
  TGI: 15.5 µM
M14 melanoma
  TGI: 17 µM
HT29 colon
  TGI: 1.05 µM
TK-10 renal
  TGI: 21.7 µM
SF-295 CNS
  TGI: 1.19 µM
UACC-257 melanoma
  TGI: > 45.8 µM
HCT-15 colon
  TGI: 11 µM
HOP-62 NSCLC
  TGI: 26.4 µM
OVCAR-8 ovarian
  TGI: 12.6 µM
SN12C renal
  TGI: 13.1 µM
CAKI-1 renal
  TGI: 23.6 µM
NCI/ADR-RES ovarian
  TGI: 0.894 µM
HL-60(TB) leukemia
  TGI: 3.34 µM
PC-3 prostate
  TGI: 16.3 µM
T-47D breast
  TGI: 41.1 µM
MDA-MB-231 breast
  TGI: 4.89 µM
IGROV1 ovarian
  TGI: 1.1 µM
OVCAR-4 ovarian
  TGI: 21.1 µM
MCF7 breast
  TGI: 16.6 µM
NCI-H522 lung
  TGI: 2.4 µM
SK-MEL-28 melanoma
  TGI: 29.6 µM
K-562 leukemia
  TGI: 24 µM
SW-620 colon
  TGI: 59 µM
A549 NSCLC
  TGI: 22.7 µM
HS 578T breast
  TGI: > 100 µM
HCT-116 colon
  TGI: 11 µM
HCC-2998 colon
  TGI: 0.982 µM
LOX IMVI melanoma
  TGI: 15.4 µM
A498 renal
  TGI: 19.8 µM

## CC(=S)N=Cc1c(O)cc(C)oc1=O
COLO 205 colon
  TGI: > 100 µM
NCI-H226 lung
  TGI: > 100 µM
CCRF-CEM leukemia
  TGI: > 100 µM
786-0 renal
  TGI: > 100 µM
MDA-N
  TGI: > 100 µM
NCI-H460 lung
  TGI: > 100 µM
SK-MEL-2 melanoma
  TGI: > 100 µM
UO-31 renal
  TGI: > 100 µM
U251 CNS
  TGI: > 100 µM
ACHN renal
  TGI: > 100 µM
SK-MEL-5 melanoma
  TGI: > 100 µM
OVCAR-5 ovarian
  TGI: > 100 µM
SF-539 CNS
  TGI: > 100 µM
SF-268 CNS
  TGI: > 100 µM
SNB-19 CNS
  TGI: > 100 µM
OVCAR-3 ovarian
  TGI: > 100 µM
KM12 colon
  TGI: > 100 µM
EKVX NSCLC
  TGI: > 100 µM
MDA-MB-435
  TGI: > 100 µM
SK-OV-3 ovarian
  TGI: > 100 µM
DU-145 prostate
  TGI: > 100 µM
SNB-75 CNS
  TGI: > 100 µM
RXF 393 renal
  TGI: > 100 µM
RPMI-8226 leukemia
  TGI: > 100 µM
HOP-92 NSCLC
  TGI: > 100 µM
BT-549 breast
  TGI: > 100 µM
NCI-H23 lung
  TGI: > 100 µM
MOLT-4 leukemia
  TGI: > 100 µM
UACC-62 melanoma
  TGI: > 100 µM
M14 melanoma
  TGI: > 100 µM
HT29 colon
  TGI: > 100 µM
TK-10 renal
  TGI: > 100 µM
SF-295 CNS
  TGI: > 100 µM
UACC-257 melanoma
  TGI: > 100 µM
HCT-15 colon
  TGI: > 100 µM
HOP-62 NSCLC
  TGI: > 100 µM
OVCAR-8 ovarian
  TGI: > 100 µM
SN12C renal
  TGI: > 100 µM
CAKI-1 renal
  TGI: > 100 µM
NCI/ADR-RES ovarian
  TGI: > 100 µM
HL-60(TB) leukemia
  TGI: > 100 µM
PC-3 prostate
  TGI: > 100 µM
T-47D breast
  TGI: > 100 µM
MDA-MB-231 breast
  TGI: > 100 µM
IGROV1 ovarian
  TGI: > 100 µM
OVCAR-4 ovarian
  TGI: > 100 µM
MCF7 breast
  TGI: > 100 µM
NCI-H522 lung
  TGI: > 100 µM
K-562 leukemia
  TGI: > 100 µM
SW-620 colon
  TGI: > 100 µM
A549 NSCLC
  TGI: > 100 µM
HS 578T breast
  TGI: > 100 µM
HCT-116 colon
  TGI: > 100 µM
HCC-2998 colon
  TGI: > 100 µM
LOX IMVI melanoma
  TGI: > 100 µM
A498 renal
  TGI: > 100 µM

## CCOC(=O)/C(C#N)=N\Nc1ccc(-n2c(C)nc3ccccc3c2=O)cc1
COLO 205 colon
  TGI: > 100 µM
NCI-H226 lung
  TGI: > 100 µM
CCRF-CEM leukemia
  TGI: > 100 µM
786-0 renal
  TGI: > 100 µM
MDA-N
  TGI: > 100 µM
NCI-H460 lung
  TGI: > 100 µM
SK-MEL-2 melanoma
  TGI: > 100 µM
UO-31 renal
  TGI: > 100 µM
U251 CNS
  TGI: > 100 µM
ACHN renal
  TGI: > 100 µM
SK-MEL-5 melanoma
  TGI: 36.6 µM
OVCAR-5 ovarian
  TGI: > 100 µM
SF-539 CNS
  TGI: > 100 µM
SF-268 CNS
  TGI: > 100 µM
SNB-19 CNS
  TGI: > 100 µM
OVCAR-3 ovarian
  TGI: 82.4 µM
KM12 colon
  TGI: > 100 µM
SR leukemia
  TGI: > 100 µM
EKVX NSCLC
  TGI: > 100 µM
MDA-MB-435
  TGI: > 100 µM
SK-OV-3 ovarian
  TGI: > 100 µM
DU-145 prostate
  TGI: > 100 µM
SNB-75 CNS
  TGI: > 100 µM
RPMI-8226 leukemia
  TGI: > 100 µM
HOP-92 NSCLC
  TGI: > 100 µM
BT-549 breast
  TGI: > 100 µM
NCI-H23 lung
  TGI: > 100 µM
MOLT-4 leukemia
  TGI: > 100 µM
UACC-62 melanoma
  TGI: > 100 µM
M14 melanoma
  TGI: > 100 µM
HT29 colon
  TGI: > 100 µM
TK-10 renal
  TGI: > 100 µM
SF-295 CNS
  TGI: > 100 µM
UACC-257 melanoma
  TGI: > 100 µM
HCT-15 colon
  TGI: > 100 µM
HOP-62 NSCLC
  TGI: > 100 µM
OVCAR-8 ovarian
  TGI: > 100 µM
SN12C renal
  TGI: > 100 µM
CAKI-1 renal
  TGI: > 100 µM
NCI/ADR-RES ovarian
  TGI: 86.8 µM
HL-60(TB) leukemia
  TGI: > 100 µM
PC-3 prostate
  TGI: > 100 µM
T-47D breast
  TGI: > 100 µM
MDA-MB-231 breast
  TGI: > 100 µM
IGROV1 ovarian
  TGI: > 100 µM
MCF7 breast
  TGI: > 100 µM
SK-MEL-28 melanoma
  TGI: > 100 µM
K-562 leukemia
  TGI: > 100 µM
SW-620 colon
  TGI: > 100 µM
A549 NSCLC
  TGI: > 100 µM
HS 578T breast
  TGI: > 100 µM
HCT-116 colon
  TGI: > 100 µM
LOX IMVI melanoma
  TGI: > 100 µM
A498 renal
  TGI: > 100 µM
